Source: patent publication US5383848A, “Iontophoretic administration of drugs” (Gensia, Inc., priority 1991, dated 1995)
Entries after “also recorded” stand apart in the source; their conditions may differ.

Tested on: elevated heart rate
Assay: In vivo dog experiments: heart rate offset after iontophoretic ESA drug with pretreatment (Example A)
Parameters: species or system labrador dogs
Settings: for Offset Slope Component (0-5) min: 0-5 min after heart rate begins to decline; for Offset Slope Component (5-10) min: 5-10 min after decline begins; for Offset Slope Component (10-30) min: 10-30 min after decline begins; for Change in Heart Rate (peak minus baseline) / Peak Heart Rate: Table II; for Total time (startup) thru offset plateau: w/in 20 bpm of baseline / Total time (startup) thru offset plateau: in words / t 1/2 of elevated heart rate decay / Total time (startup) thru offset plateau: w/in 10 bpm of baseline: Table IV; for Onset Slope: baseline at onset time to peak heart rate; for Offset time: drug delivery stopped until within 20 bpm of baseline; for Offset Slope: drug shut-off to 20 bpm above baseline; for Delay: drug shut-off to start of heart rate decline; for t 1/2 of elevated heart rate decay: exponential fit; for Reduction in offset time: iontophoretic pre-delivery; for Onset time: start of delivery to start of increase in heart rate; for Time Start Decline: time when elevated heart rate began to decline

COC(=O)c1cccnc1 [Methyl Nicotinate, methyl ester of nicotinic acid]
Offset Slope Component (0-5) min (listed as 9): -2.40 beats per minute per minute | Offset Slope Component (0-5) min (listed as 10): -1.40 beats per minute per minute | Offset Slope Component (5-10) min (listed as 9): -0.40 beats per minute per minute | Offset Slope Component (5-10) min (listed as 10): -2.40 beats per minute per minute | Offset Slope Component (10-30) min (listed as 9): -0.28 beats per minute per minute | Offset Slope Component (10-30) min (listed as 10): -1.90 beats per minute per minute | Change in Heart Rate (peak minus baseline) (listed as 9): 55 bpm | Peak Heart Rate (listed as 9): 117 bpm | Change in Heart Rate (peak minus baseline) (listed as 10): 81 bpm | Peak Heart Rate (listed as 10): 152 bpm | Total time (startup) thru offset plateau: w/in 20 bpm of baseline: 55 min | Total time (startup) thru offset plateau: in words (listed as 9): Never Reached w/in 20 bpm of baseline | Total time (startup) thru offset plateau: in words (listed as 10): never lower | Onset Slope (listed as 9): 4.20 beats per minute per minute | Onset Slope (listed as 10): 12.30 beats per minute per minute | Offset time (listed as 9): 29.00 min | Offset time (listed as 10): 31.00 min | Offset Slope (listed as 9): -0.40 beats per minute per minute | Offset Slope (listed as 10): -1.70 beats per minute per minute | Delay (listed as 9): 6.50 min | Delay (listed as 10): 2.50 min | t 1/2 of elevated heart rate decay: 21.36 min | Reduction in offset time: also reduce offset time | Onset time (listed as 9): 15.00 min | Onset time (listed as 10): 7.00 min | Time Start Decline (listed as 9): 25.00 min | Time Start Decline (listed as 10): 20.50 min

CC(COc1ccccc1)N(CCCl)Cc1ccccc1 (stereo not drawn) [Phenoxybenzamine]
Offset Slope Component (0-5) min (listed as 18): -4.20 beats per minute per minute | Offset Slope Component (0-5) min (listed as 19): -4.90 beats per minute per minute | Offset Slope Component (5-10) min (listed as 18): 0.02 beats per minute per minute | Offset Slope Component (5-10) min (listed as 19): -2.00 beats per minute per minute | Offset Slope Component (10-30) min (listed as 18): -0.53 beats per minute per minute | Offset Slope Component (10-30) min (listed as 19): -1.80 beats per minute per minute | Change in Heart Rate (peak minus baseline) (listed as 18): 57 bpm | Peak Heart Rate (listed as 18): 117 bpm | Change in Heart Rate (peak minus baseline) (listed as 19): 79 bpm | Peak Heart Rate (listed as 19): 149 bpm | Total time (startup) thru offset plateau: w/in 10 bpm of baseline (listed as 18): 60 min | Total time (startup) thru offset plateau: w/in 10 bpm of baseline (listed as 19): 48 min | Onset Slope (listed as 18): 3.70 beats per minute per minute | Onset Slope (listed as 19): 13.90 beats per minute per minute | Offset time (listed as 18): 30.00 min | Offset time (listed as 19): 25.80 min | Offset Slope (listed as 18): -0.80 beats per minute per minute | Offset Slope (listed as 19): -2.30 beats per minute per minute | Delay (listed as 18): 10.00 min | Delay (listed as 19): 3.50 min | t 1/2 of elevated heart rate decay (listed as 18): 16.96 min | t 1/2 of elevated heart rate decay (listed as 19): 11.52 min | Reduction in offset time: found effective when pre-delivered iontophoretically; also recorded: also reduce offset time | Onset time (listed as 18): 18.00 min | Onset time (listed as 19): 7.40 min | Time Start Decline (listed as 18): 28.00 min | Time Start Decline (listed as 19): 22.00 min

Cc1ccc(N(CC2=NCCN2)c2cccc(O)c2)cc1 [Phentolamine]
Reduction in offset time: found effective when pre-delivered iontophoretically

CC[C@@H]1C(=O)OC[C@@H]1Cc1cncn1C [Pilocarpine]
Offset Slope Component (0-5) min (listed as 7): -1.70 beats per minute per minute | Offset Slope Component (0-5) min (listed as 8): -7.60 beats per minute per minute | Offset Slope Component (5-10) min (listed as 7): -2.50 beats per minute per minute | Offset Slope Component (5-10) min (listed as 8): -1.40 beats per minute per minute | Percent decline in heart rate, ranking (5-10 minute interval, FIG. 1): next highest percent declines | Offset Slope Component (10-30) min (listed as 7): -1.10 beats per minute per minute | Offset Slope Component (10-30) min (listed as 8): -1.00 beats per minute per minute | Delay to onset of heart rate decline, ranking (FIG. 2): shortest delay | Change in Heart Rate (peak minus baseline) (listed as 7): 73 bpm | Peak Heart Rate (listed as 7): 133 bpm | Change in Heart Rate (peak minus baseline) (listed as 8): 114 bpm | Peak Heart Rate (listed as 8): 191 bpm | Total time (startup) thru offset plateau: in words: Never reached w/in 20 bpm of baseline | Total time (startup) thru offset plateau: w/in 20 bpm of baseline: 60 min | Onset Slope (listed as 7): 11.60 beats per minute per minute | Onset Slope (listed as 8): 11.20 beats per minute per minute | Offset time (listed as 7): 38.00 min | Offset time (listed as 8): 36.00 min | Offset Slope (listed as 7): -1.10 beats per minute per minute | Offset Slope (listed as 8): -1.70 beats per minute per minute | Delay (listed as 7): 1.30 min | Delay (listed as 8): 5.30 min | t 1/2 of elevated heart rate decay (listed as 7): 28.85 min | t 1/2 of elevated heart rate decay (listed as 8): 21.36 min | Reduction in offset time: also reduce offset time | Onset time (listed as 7): 6.70 min | Onset time (listed as 8): 13.00 min | Time Start Decline (listed as 7): 23.80 min | Time Start Decline (listed as 8): 24.30 min
